The values that follow come from PubChem BioAssay AID179 (DTP/NCI, 2004).

Active and inactive are the calls of the source.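 Rule for the calls: active = compounds giving half or more protection of infected cells from virus-caused growth loss, again on retest; inactive = the rest.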 Some results are limits rather than exact numbers.

The subject of this assay is CEM cells HIV-1 protection, formazan growth assay. Nature of the assay: NCI AIDS Antiviral Assay. Conditions: for IC50: measured here: growth of uninfected CEM cells. The essentials:
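Five concentrations of each compound were applied to infected and uninfected human CEM cells. Protection from HIV-1 was judged from growth measured with a soluble formazan assay.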

A word on the EC50: it is the concentration needed to bring the measured effect to its halfway point. Usually IC50 stands for the midpoint of a concentration-inhibition curve. A low value points to inhibition by little substance. Turning to `N#Cc1ccc(C(=O)/C=C/c2ccc(O)c(O)c2)cc1`, the EC50 was above 200 µM and the IC50 came to 10.2 µM.

As to `COC1/C=C/OC2(C)Oc3c(C)c(O)c4c(O)c(c(/C=N/N5CCN(Cc6ccccc6)CC5)c(O)c4c3C2=O)NC(=O)C(C)=C/C=C/C(C)C(O)C(C)C(O)C(C)C(OC(C)=O)C1C` (centres undefined), the EC50 was above 200 µM and the IC50 stood at 10.2 µM.

As to `COc1ccc(/C=C2\CCc3ccccc3C2=O)cc1OC`, the EC50 was above 33.9 µM and the IC50 is above 33.9 µM. On to `Cc1ncc(CCl)c2c1OC(C)(C)OC2`, for which the EC50 is above 676 µM and the IC50 was 7.94 µM. Taken in the same sequence, the figures for `COc1ccc(/C=C/c2cnc3ccccc3n2)cc1OC` were above 200 µM and 155 µM. With `COC(=O)[C@]1(C)CCCC2(C)C3=C(CCC21)CC1(CC3)SCCS1` (some centres undefined), the EC50 is above 186 µM and the 50% inhibitory concentration (IC50) was found to be 74.1 µM. For the compound `Cc1cccc(NC(=S)NC(=O)c2ccccc2)n1`, the EC50 was above 200 µM and the IC50 was above 200 µM.

Take `O=c1c2ncn(COCCCl)c2n(-c2ccccc2)c(=S)n1-c1ccccc1`: the outcome was inactive.

Take `O=C1C(=O)N(CNC(c2ccccc2)c2ccccc2)c2ccccc21`: the EC50 was above 126 µM and the IC50 amounted to 102 µM.

`COc1ccc(C(OCC2OC3(COC(c4ccccc4)(c4ccc(OC)cc4)c4ccc(OC)cc4)C(Oc4nc(=O)ccn43)C2O)(c2ccccc2)c2ccc(OC)cc2)cc1` (centres undefined): the EC50 is above 100 µM and the IC50 is above 100 µM. For the compound `CC(=O)SCCC1c2[nH]c3ccccc3c2CCN1O` (centres undefined), the outcome was inactive. Turning to `C[N+]12CCCc3cccc(c31)CCC2`, the EC50 was above 794 µM and the IC50 was 182 µM.

Regarding `CCC1Sc2cc(OC)cc([N+](=O)[O-])c2NC1=O` (centres undefined), the EC50 is above 200 µM and the IC50 was above 200 µM. `O=C(O)[C@@H]1[C@H](OCc2ccccc2)[C@H](OCc2ccccc2)CN1C(=O)OCc1ccccc1`: the EC50 is above 200 µM and the IC50 stood at 115 µM. Taken in the same sequence, the figures for `O=C1OCCC1C(O)C1c2ccccc2-c2ccccc21` (centres undefined) were above 339 µM and above 339 µM. Taken in the same sequence, the figures for `COC(=O)N/N=C(\Cc1ccccc1)CN(C)C` were above 200 µM and above 200 µM. As to `CCOCN1COCN=C1NC#N`, the EC50 was above 490 µM and the IC50 was above 490 µM. As to `CC1=C(\C=C/C(C)=C/C=C/C(C)=C/C=C/C=C(C)\C=C\C=C(C)/C=C/C2=C(C)CCCC2(C)C)C(C)(C)CCC1`, the EC50 is above 200 µM and the IC50 came out at 97.7 µM. Take `CCCCN1C(=O)c2cc(=O)[nH]c(O)c2C1C` (centres undefined): the EC50 is above 1050 µM and the IC50 worked out at 676 µM. Taken in the same sequence, the figures for `N#Cc1ccc(CSC2=C(c3ccc(Cl)cc3)S/C(=C3\SC(SCc4ccc(C#N)cc4)=C(c4ccc(Cl)cc4)S3)S2)cc1` were above 100 µM and above 100 µM. The corresponding values for `O=c1[nH]c2nc3ccccc3c(=O)n2/c1=C/c1ccc(Cl)cc1` are above 200 µM and 11.2 µM. `COP(=O)(OC)C(=O)c1ccccc1`: the EC50 is above 1150 µM and the IC50 was above 1150 µM. Turning to `CCOC(=O)c1nc2cc(C(F)(F)F)ccc2nc1Oc1ccc(F)cc1`, the EC50 is above 200 µM and the IC50 came out at 186 µM. The corresponding values for `Cc1cc(C(F)(F)F)cc(-n2nc(NS(=O)(=O)c3cc(C)c(Cl)cc3S)nc2N)n1` are above 200 µM and 166 µM. The corresponding values for `CC/C(N)=N\NC(=O)OC(C)(C)C` are above 200 µM and above 200 µM.

For `Cc1nc(Nc2ccccc2)sc1C(=O)NNC(N)=O`, the EC50 was above 151 µM and the IC50 worked out at 63.1 µM.

As to `O=C(/C=C/c1ccc(O)c(O)c1)OC1CC(O)(C(=O)O)CC(O)C1O` (centres undefined), the EC50 is above 200 µM and the IC50 was 91.2 µM. As for `O=C1C2c3[nH]c4ccccc4c3C3CCCCCCC3C2C(=O)N1c1ccccc1` (centres undefined), the outcome was inactive. For `CC(=O)NC(/C=C\C(=O)O)C(=O)O` (centres undefined), the EC50 is above 200 µM and the IC50 is above 200 µM. On to `Cc1nnc(Cc2ccccc2)c2n[nH]c(C)c12`, for which the EC50 is above 398 µM and the IC50 was determined as 110 µM.

As for `CC(=O)c1cccc(NC(=O)C(=O)c2c(O)c3ccccc3oc2=O)c1`, the EC50 is above 708 µM and the IC50 came to 380 µM.

On to `CNc1ccccc1S(=O)(=O)c1cc(Cl)ccc1OC`, for which the EC50 is 151 µM and the IC50 was above 200 µM. The corresponding values for `COc1cc2c(c(OC)c1OC)-c1ccc(OC)c(=O)cc1C(NC(=O)c1ccc(N=[N+]=[N-])cc1)CC2` (centres undefined) are above 200 µM and 5.89 µM. The corresponding values for `Cc1ccc2[nH]c(=O)c(-c3cnc(=O)[nH]n3)c(O)c2c1` are 3.02 µM and 15.1 µM.

`CCN(CC)c1ccc2cc(C(=O)Nc3cccc4ccccc34)c(=N)oc2c1`: the EC50 is above 200 µM and the IC50 was found to be 12.6 µM. As for `Cc1cc(C)nc(NS(=O)(=O)c2ccc(NC(=O)c3cccc4c(=O)c5ccccc5[nH]c34)cc2)n1`, the result was inactive. Same read-out and setting: to `C/C=C/C(=O)[C@@H](O)C(C)C` belongs “inactive”. Regarding `CSc1ncnc2c1C[P+](Cc1ccccc1)(c1ccccc1)CC2` (centres undefined), the EC50 is above 562 µM and the IC50 was above 562 µM. Turning to `O=C(CNC(=O)Nc1ccc(NC(=O)NCC(=O)Nc2ccc(C3=NCCN3)cc2)cc1)Nc1ccc(C2=NCCN2)cc1`, the EC50 was 81.3 µM and the IC50 is above 200 µM. The corresponding values for `CCOC(=O)/C(=C/c1ccc(N(C)C)cc1)N(CC)CC` are above 46.8 µM and above 46.8 µM.

As for `CCOC(=O)C1=C(O)CSC1=Nc1ccc(N=C2SCC(O)=C2C(=O)OCC)cc1`, the result was inactive. In the case of `CCOC(=O)C1=NN(c2ccccc2)C(=O)/C1=C\N1C(=O)/C(=C/c2cccc(O)c2)SC1=S`, the EC50 is above 200 µM and the IC50 came out at 38.9 µM. Taken in the same sequence, the figures for `N#Cc1c(N)nc2c(N=Nc3ccccc3)c(N)nn2c1Nc1ccccc1` were above 200 µM and 9.55 µM.

With `O=S1(=O)CCN(Cc2ccccc2)/C1=N\S(=O)(=O)c1ccc(Cl)cc1`, the EC50 is above 200 µM and the IC50 amounted to 17 µM.

With `COC(=O)c1cc(C(=O)Nc2cc(C(=CCC[C@H]3CC[C@@]4(C)[C@@H](CC[C@@H]5[C@@H]4CC[C@]4(C)[C@@H](C(C)CCCC(C)C)CC[C@@H]54)C3)c3cc(NC(=O)c4ccc(OC)c(C(=O)OC)c4)c(OC)c(C(=O)OC)c3)cc(C(=O)OC)c2OC)ccc1OC` (some centres undefined), the EC50 is above 100 µM and the IC50 was above 100 µM. Turning to `Cc1cc(S(=O)(=O)Nc2n[nH]c(N)n2)c(S)cc1Cl`, the EC50 was above 200 µM and the IC50 is above 200 µM.

For the compound `CC(C)NC(=O)OCCN=C1c2ccccc2C(Br)C(Br)c2ccccc21` (centres undefined), the EC50 is above 200 µM and the IC50 stood at 0.575 µM. Regarding `C(=C\c1ccc2ccccc2c1Nc1ccccc1)/c1ccccc1`, the result was inactive.

Turning to `NC(=O)c1ncn(C2OC(CO)C(F)C2O)c1N` (centres undefined), the EC50 is above 200 µM and the IC50 was above 200 µM. On to `Cc1cccc(C(=O)NCCN(C)C)c1[N+](=O)[O-]`, for which the EC50 is above 200 µM and the IC50 is above 200 µM. On to `Cc1cnc2cc(Cl)ccc2c1NCCN(CC(C)C)CC(C)C`, for which the EC50 is above 1 µM and the IC50 was above 1 µM. For `COC(=O)c1ccccc1CC1Cc2c(C)ccc(C)c2C1=O` (centres undefined), the EC50 was above 200 µM and the IC50 amounted to 34.7 µM. Taken in the same sequence, the figures for `Cc1cccc(C)c1N1C(=O)C2c3[nH]c4ccccc4c3C3CCC(C(C)(C)C)CC3C2C1=O` (centres undefined) were above 200 µM and 12.3 µM. As to `O=C(/C=C/c1ccccc1)CC(=O)CCC(=O)Nc1ccc(Cl)cc1`, the outcome was inactive. As to `O=C(NCCc1c(-c2ccccc2)[nH]c2ccccc12)C(F)(F)F`, the EC50 is above 200 µM and the IC50 was determined as 34.7 µM. Taken in the same sequence, the figures for `Nc1ccccc1C(=O)C(Br)C(Br)c1ccc2c(c1)OCO2` (centres undefined) were above 43.7 µM and 23.4 µM. On to `COc1c(Br)cc(Br)c(OC)c1-c1[nH]c(Br)c(Br)c1Br`, for which the EC50 is above 16.6 µM and the IC50 was above 16.6 µM.

Turning to `COc1ccccc1C1OCC(C)(C)N1C` (centres undefined), the EC50 is above 200 µM and the IC50 turned out to be 14.5 µM.

Consider `Cc1ccc(C2=NNc3n[nH]c(=S)n3N2)cc1`, for which the EC50 is above 75.9 µM and the IC50 is above 75.9 µM. In the case of `OCCN1C(c2ccccc2)=CN2C=CSC21` (centres undefined), the EC50 is above 200 µM and the IC50 stood at 29.5 µM. Taken in the same sequence, the figures for `Cc1cc[n+]2cc(-c3ccc(/C=N/N=C(N)N)cc3)n(C)c2c1` were 52.5 µM and 55 µM. The corresponding values for `Cc1cc2nc(NS(=O)(=O)c3cc(C)c(Cl)cc3S)[nH]c2cc1C` are above 200 µM and above 200 µM. For the compound `O=c1[nH]c(=O)n(COCc2ccccc2)c2ccc([N+](=O)[O-])cc12`, the EC50 was above 200 µM and the IC50 is above 200 µM. Turning to `O=S(=O)(O)SCc1ccccc1CSS(=O)(=O)O`, the EC50 was above 200 µM and the IC50 was above 200 µM. As to `O=C1Oc2ccccc2C1C/C(=N\Nc1ccccc1)c1ccccc1O` (centres undefined), the EC50 is above 93.3 µM and the IC50 is 79.4 µM.

Turning to `O=c1oc2ccccc2c2nc3c([N+](=O)[O-])cccc3cc12`, the EC50 is above 200 µM and the IC50 is 8.13 µM.

`O=C1[C@H](c2ccccc2)C2c3ccccc3CCN12` (some centres undefined): the EC50 is above 200 µM and the IC50 is 97.7 µM. Taken in the same sequence, the figures for `CC(C(=O)N1C(=O)N(C(=O)[C@H](C)C(O)c2ccccc2)[C@H](c2ccccc2)[C@H]1c1ccccc1)[C@@H](O)c1ccccc1` (some centres undefined) were above 200 µM and 28.2 µM. Taken in the same sequence, the figures for `c1ccc2c(c1)nnn2CNc1ccc(N2CCCCC2)cc1` were above 200 µM and 51.3 µM. The corresponding values for `Cc1ccc(NC(=O)C(=O)C(C(=O)/C=C/c2ccccc2)C2OC(=O)c3ccccc32)c(C)c1` (centres undefined) are above 427 µM and 63.1 µM. For `CCCCCCCCCCCCN1C(=O)c2ccccc2[Se]1=O` (centres undefined), the EC50 was above 2.75 µM and the IC50 was above 2.75 µM.
